# Values quoted from earlier work in patent US7090851B1, “Long lasting fusion peptide inhibitors of viral infection” (priority 1999, dated 2006).
# “Also recorded” adds a separate entry of the source.
# Test system: respiratory syncytial virus (RSV)
# Conditions: Hep-2 cells
row,Substance,concentration inhibiting fusion and syncytia formation between RSV-infected and uninfected Hep-2 cells
1,"IALLSTNKAVVSLSNGVSVLTSKVLDLKNYIDK [SEQ ID NO:29, anti-RSV peptide]",less than 50 μg/ml

# Same assay, conditions: RSV-infected and uninfected Hep-2 cells
row,Substance,"inhibition of RSV viral infection, fusion and syncytia formation"
1,"YTSVITIELSNIKENKCNGAKVKLIKQELDKYK (YTSVITIELSNIKENKCNGDAKVKLIKQELDKYK) [SEQ ID NO:14, anti-RSV peptide]",inhibits viral infection
2,"VITIELSNIKENKCNGAKVKLIKQELDKYKNAV (VITIELSNIKENKCNGDAKVKLIKQELDKYKNAV) [SEQ ID NO:16, anti-RSV peptide]",inhibits viral infection
3,"IALLSTNKAVVSLSNGVSVLTSKVLDLKNYIDK [SEQ ID NO:29, anti-RSV peptide]",inhibits viral infection
4,"TSVITIELSNIKENKCNGAKVKLIKQELDKYKN (TSVITIELSNIKENKCNGDAKVKLIKQELDKYKN) [SEQ ID NO:15, anti-RSV peptide]",inhibits viral infection

# Test system: human parainfluenza virus 3 (HPIV3)
# Conditions: HPIV3-infected Hep2 cells and uninfected CV-1W cells
row,Substance,"inhibition of HPIV3 viral infection, fusion and syncytia formation"
1,"PIDISIELNKAKSDLEESKEWIRRSNQKLDSIGNW (DPIDISIELNKAKSDLEESKEWIRRSNQKLDSIGN) [SEQ ID NO:41, anti-HPIV peptide]",inhibits viral infection
2,"NSVALDPIDISIELNKAKSDLEESKEWIRRSNQKL (NNSVALDPIDISIELNKAKSDLEESKEWIRRSNQK) [SEQ ID NO:35, anti-HPIV peptide]",inhibits viral infection
3,"IDISIELNKAKSDLEESKEWIRRSNQKLDSIGNWH (PIDISIELNKAKSDLEESKEWIRRSNQKLDSIGNW) [SEQ ID NO:42, anti-HPIV peptide]",inhibits viral infection
4,"LDPIDISIELNKAKSDLEESKEWIRRSNQKLDSIG (ALDPIDISIELNKAKSDLEESKEWIRRSNQKLDSI) [SEQ ID NO:39, anti-HPIV peptide]",inhibits viral infection
5,"DPIDISIELNKAKSDLEESKEWIRRSNQKLDSIGN (LDPIDISIELNKAKSDLEESKEWIRRSNQKLDSIG) [SEQ ID NO:40, anti-HPIV peptide]",inhibits viral infection
6,VEAKQARSDIEKLKEAIRDTNKAVQSVQSSIGNLI [SEQ ID NO:52],inhibits viral infection
7,"ALDPIDISIELNKAKSDLEESKEWIRRSNQKLDSI (VALDPIDISIELNKAKSDLEESKEWIRRSNQKLDS) [SEQ ID NO:38, anti-HPIV peptide]",inhibits viral infection
8,RSDIEKLKEAIRDTNKAVQSVQSSIGNLIVAIKSV [SEQ ID NO:58],inhibits viral infection

# Test system: measles virus (MeV)
# Conditions: MeV-infected and uninfected Vero cells
row,Substance,"inhibition of MeV viral infection, fusion and syncytia formation"
1,PISLERLDVGTNLGNAIAKLEAKELLESSDQILR [SEQ ID NO:84],inhibits viral infection
2,HRIDLGPPISLERLDVGTNLGNAIAKLEAKELLE [SEQ ID NO:77],inhibits viral infection
3,IDLGPPISLERLDVGTNLGNAIAKLEAKELLESS [SEQ ID NO:79],inhibits viral infection

# Test system: simian immunodeficiency virus (SIV)
# Conditions: as crude peptide
row,Substance,anti-SIV activity
1,FLEENITALLEEAQIQQEKNMYELQKLNSWDVFGN [SEQ ID NO:73],potent antiviral activity
2,RKVDFLEENITALLEEAQIQQEKNMYELQKLNSWD [SEQ ID NO:69],potent antiviral activity
3,DFLEENITALLEEAQIQQEKNMYELQKLNSWDVFG [SEQ ID NO:72],potent antiviral activity
4,ERKVDFLEENITALLEEAQIQQEKNMYELQKLNSW [SEQ ID NO:68],potent antiviral activity
5,VDFLEENITALLEEAQIQQEKNMYELQKLNSWDVF [SEQ ID NO:71],potent antiviral activity
6,WQEWERKVDFLEENITALLEEAQIQQEKNMYELQK [SEQ ID NO:64],potent antiviral activity
7,WERKVDFLEENITALLEEAQIQQEKNMYELQKLNS [SEQ ID NO:67],potent antiviral activity
8,QEWERKVDFLEENITALLEEAQIQQEKNMYELQKL [SEQ ID NO:65],potent antiviral activity
9,KVDFLEENITALLEEAQIQQEKNMYELQKLNSWDV [SEQ ID NO:70],potent antiviral activity
10,EWERKVDFLEENITALLEEAQIQQEKNMYELQKLN [SEQ ID NO:66],potent antiviral activity

# Test system: HIV-1
# Conditions: infection and cell-cell fusion
row,Substance,anti-HIV-1 activity (words)
1,enfuvirtide,potent inhibitor of HIV-1; also recorded: potent anti-HIV-1 activity

# Same assay, conditions: infection and cell-cell fusion; listed as DP-107
row,Substance,anti-HIV-1 activity (words)
1,NNLLRAIEAQQHLLQLTVWQIKQLQARILAVERYLKDQ [DP107],potent inhibitors of HIV-1 infection and fusion

# Same assay, conditions: infection and cell-cell fusion; listed as DP-178
row,Substance,anti-HIV-1 activity (words)
1,enfuvirtide,potent inhibitors of HIV-1 infection and fusion
